According to patent US20250114338A1, “TETRAHYDRO-PYRIDO[3,4-b]INDOLE ESTROGEN RECEPTOR MODULATORS AND USES THEREOF” (Genentech, Inc., priority 2014, published 2025):

tested on: ER-alpha MCF7; assay: ER-alpha MCF7 HCS EC50; stated as measured by in vitro cell proliferation assays of Examples 902 and 903; assay type: cell-based; conditions: Homo sapiens, MCF7, MCF7 cells; Table 2
From the text: The CellTiter-Glo® Luminescent Cell Viability Assay is a homogeneous method to determine the number of viable cells in culture based on quantitation of the ATP present, which signals the presence of metabolically active cells. The CellTiter-Glo® Assay is designed for use with multiwell plate formats, making it ideal for automated high-throughput screening (HTS), cell proliferation and cytotoxicity assays. The homogeneous assay procedure involves adding a single reagent (CellTiter-Glo® Reagent) directly to cells cultured in serum-supplemented medium. Cell washing, removal of medium or multiple pipetting steps are not required. The Cell Titer-Glo® Luminescent Cell Viability Assay, including reagents and protocol are commercially available (Promega Corp., Madison, WI, Technical Bulletin TB288).
The assay assesses the ability of compounds to enter cells and inhibit cell proliferation. The assay principle is based on the determination of the number of viable cells present by quantitating the ATP present in a homogenous assay where addition of the Cell Titer-Glo® reagent results in cell lysis and generation of a luminescent signal through the luciferase reaction. The luminescent signal is proportional to the amount of ATP present.
Cell Culture Medium: RPMI or DMEM high glucose, 10% Fetal Bovine Serum, 2 mM L-Glutamine, P/S. Incubate O/N (overnight) at 37° C., 5% CO2.
Day 2—Add Drug to Cells, Compound Dilution, DMSO Plates (serial 1:2 for 9 points). Add 20 μl of compound at 10 mM in the 2nd column of 96 well plate. […] Add 147 μl of Media into all wells. Transfer 3 μl of DMSO+ compound from each well in the DMSO Plate to each corresponding well on Media Plate using Rapidplate® (Caliper, a Perkin-Elmer Co.). For 2 drug combination studies, transfer one drug 1.5 μl of DMSO+ compound from each well in the DMSO Plate to each corresponding well on Media Plate using Rapidplate. Then, transfer another drug 1.5 μl to the medium plate.
Drug Addition to Cells, Cell Plate (1:10 dilution): Add 6 μl of media+ compound directly to cells (54 μl of media on the cells already). Incubate 3 days at 37° C., 5% CO2 in an incubator that will not be opened often.
Day 5—Develop Plates, Thaw Cell Titer Glo Buffer at room temperature: Remove Cell Plates from 37° C. and equilibrate to room temperature for about 30 minutes. Add Cell Titer-Glo® Buffer to Cell Titer-Glo® Substrate (bottle to bottle). Add 30 μl Cell Titer-Glo® Reagent (Promega cat. #G7572) to each well of cells. Place on plate shaker for about 30 minutes. Read luminescence on Analyst HT Plate Reader (half second per well).
Cell viability assays and combination assays: Cells were seeded at 1000-2000 cells/well in 384-well plates for 16 h. On day two, nine serial 1:2 compound dilutions were made in DMSO in a 96 well plate. The compounds were further diluted into growth media using a Rapidplate® robot (Zymark Corp., Hopkinton, MA). The diluted compounds were then added to quadruplicate wells in 384-well cell plates and incubated at 37° C. and 5% CO2. After 4 days, relative numbers of viable cells were measured by luminescence using Cell Titer-Glo® (Promega) according to the manufacturer's instructions and read on a Wallac Multilabel Reader® (PerkinElmer, Foster City). EC50 values were calculated using Prism® 4.0 software (GraphPad, San Diego).
5 ul of each individual compound concentration and each control compound was transferred to the cell plate. Fulvestrant was added to control wells at a final concentration of 100 nM). DMSO was added to negative control wells (0.2% v/v).

| EC50 | SMILES |
| --- | --- |
| 2 nM | C[C@@H]1Cc2c([nH]c3ccccc23)[C@@H](c2c(F)cc(OC3CN(CC4CCCC4)C3)cc2F)N1CC(C)(C)F [Example 165, (1R,3R)-1-[4-[1-(cyclopentylmethyl)azetidin-3-yl]oxy-2,6-difluoro-phenyl]-2-(2-fluoro-2-methyl-propyl)-3-methyl-1,3,4,9-tetrahydropyrido[3,4-b]indole] |
| 0.175 nM | C[C@@H]1Cc2c([nH]c3ccccc23)[C@@H](c2c(F)cc(OC3CN(CCF)C3)cc2F)N1CC(C)(C)F [Example 166, (1R,3R)-1-[2,6-difluoro-4-[1-(2-fluoroethyl)azetidin-3-yl]oxy-phenyl]-2-(2-fluoro-2-methyl-propyl)-3-methyl-1,3,4,9-tetrahydropyrido[3,4-b]indole] |
| 0.083 nM | C#CCN1CC(Oc2cc(F)c([C@@H]3c4[nH]c5ccccc5c4C[C@@H](C)N3CC(C)(C)F)c(F)c2)C1 [Example 167, (1R,3R)-1-[2,6-difluoro-4-(1-prop-2-ynylazetidin-3-yl)oxy-phenyl]-2-(2-fluoro-2-methyl-propyl)-3-methyl-1,3,4,9-tetrahydropyrido[3,4-b]indole] |
| 0.122 nM | CC(C)N1CC(Oc2cc(F)c([C@@H]3c4[nH]c5ccccc5c4C[C@@H](C)N3CC(C)(C)F)c(F)c2)C1 [Example 168, (1R,3R)-1-[2,6-difluoro-4-(1-isopropylazetidin-3-yl)oxy-phenyl]-2-(2-fluoro-2-methyl-propyl)-3-methyl-1,3,4,9-tetrahydropyrido[3,4-b]indole] |
| 0.409 nM | CC(C)CN1CC(Oc2cc(F)c([C@@H]3c4[nH]c5ccccc5c4C[C@@H](C)N3CC(C)(C)F)c(F)c2)C1 [Example 169, (1R,3R)-1-[2,6-difluoro-4-(1-isobutylazetidin-3-yl)oxy-phenyl]-2-(2-fluoro-2-methyl-propyl)-3-methyl-1,3,4,9-tetrahydropyrido[3,4-b]indole] |
| 1 nM | C[C@@H]1Cc2c([nH]c3ccccc23)[C@@H](c2c(F)cc(OC3CN(C(=O)OC(C)(C)C)C3)cc2F)N1CC(C)(C)F [Example 170, tert-butyl 3-[3,5-difluoro-4-[(1R,3R)-2-(2-fluoro-2-methyl-propyl)-3-methyl-1,3,4,9-tetrahydropyrido[3,4-b]indol-1-yl]phenoxy]azetidine-1-carboxylate] |
| 0.471 nM | CC[C@@H]1Cc2c([nH]c3ccccc23)[C@@H](c2c(F)cc(OCCN3CC(CF)C3)cc2F)N1CC(C)(C)F [Example 171, (1R,3R)-1-(2,6-difluoro-4-(2-(3-(fluoromethyl)azetidin-1-yl)ethoxy)phenyl)-3-ethyl-2-(2-fluoro-2-methylpropyl)-2,3,4,9-tetrahydro-1H-pyrido[3,4-b]indole] |
| 17 nM | CC[C@H]1Cc2c([nH]c3ccccc23)[C@@H](c2c(F)cc(OCCN3CC(CF)C3)cc2F)N1CC(C)(C)F [Example 172, (1R,3S)-1-(2,6-difluoro-4-(2-(3-(fluoromethyl)azetidin-1-yl)ethoxy)phenyl)-3-ethyl-2-(2-fluoro-2-methylpropyl)-2,3,4,9-tetrahydro-1H-pyrido[3,4-b]indole] |
| 1 nM | C[C@@H]1Cc2c([nH]c3ccccc23)[C@@H](c2c(F)cc(OCCN3CC(CF)C3)cc2F)N1CC1(C)CCC1 [Example 173, (1R,3R)-1-[2,6-difluoro-4-[2-[3-(fluoromethyl)azetidin-1-yl]ethoxy]phenyl]-3-methyl-2-[(1-methylcyclobutyl)methyl]-1,3,4,9-tetrahydropyrido[3,4-b]indole] |
| 0.285 nM | C[C@@H]1Cc2c([nH]c3ccccc23)[C@@H](c2c(F)cc(OCCN3CC(CF)C3)cc2F)N1CC(F)(F)F [Example 174, (1R,3R)-1-[2,6-difluoro-4-[2-[3-(fluoromethyl)azetidin-1-yl]ethoxy]phenyl]-3-methyl-2-(2,2,2-trifluoroethyl)-1,3,4,9-tetrahydropyrido[3,4-b]indole] |
| 14 nM | C[C@@H]1Cc2c([nH]c3ccccc23)[C@H](c2c(F)cc(OCCN3CC(CF)C3)cc2F)N1CC(F)(F)F [Example 175, (1S,3R)-1-[2,6-difluoro-4-[2-[3-(fluoromethyl)azetidin-1-yl]ethoxy]phenyl]-3-methyl-2-(2,2,2-trifluoroethyl)-1,3,4,9-tetrahydropyrido[3,4-b]indole] |
| 0.031 nM | COC(CCN1CC(Oc2cc(F)c([C@@H]3c4[nH]c5ccccc5c4C[C@@H](C)N3CC(C)(C)F)c(F)c2)C1)OC [Example 176, (1R,3R)-1-[4-[1-(3,3-dimethoxypropyl)azetidin-3-yl]oxy-2,6-difluoro-phenyl]-2-(2-fluoro-2-methyl-propyl)-3-methyl-1,3,4,9-tetrahydropyrido[3,4-b]indole] |
| 0.164 nM | C[C@@H]1Cc2c([nH]c3ccccc23)[C@@H](c2ccc(OC3CN(CCCF)C3)cc2F)N1CC(C)(C)F [Example 177, (1R,3R)-1-[2-fluoro-4-[1-(3-fluoropropyl)azetidin-3-yl]oxy-phenyl]-2-(2-fluoro-2-methyl-propyl)-3-methyl-1,3,4,9-tetrahydropyrido[3,4-b]indole] |
| 0.5 nM | CC(C)(F)CN1CCc2c([nH]c3ccccc23)C1c1c(F)cc(OCCN2CC(CF)C2)cc1F (stereo not drawn) [Example 178, 1-[2,6-difluoro-4-[2-[3-(fluoromethyl)azetidin-1-yl]ethoxy]phenyl]-2-(2-fluoro-2-methyl-propyl)-1,3,4,9-tetrahydropyrido[3,4-b]indole] |
| 13 nM | C[C@@H]1Cc2c([nH]c3ccccc23)[C@H](c2ccc(OCCN3CC(CF)C3)cc2)N1S(C)(=O)=O [Example 179, (1S,3R)-1-[4-[2-[3-(fluoromethyl)azetidin-1-yl]ethoxy]phenyl]-3-methyl-2-methylsulfonyl-1,3,4,9-tetrahydropyrido[3,4-b]indole] |
| 0.222 nM | C[C@@H]1Cc2c([nH]c3ccccc23)[C@@H](c2ccc(OCCN3CC(CF)C3)cc2)N1S(C)(=O)=O [Example 180, (1R,3R)-1-(4-(2-(3-(fluoromethyl)azetidin-1-yl)ethoxy)phenyl)-3-methyl-2-(methylsulfonyl)-2,3,4,9-tetrahydro-1H-pyrido[3,4-b]indole] |
| 4 nM | CC(CO)C(=O)N1[C@H](c2c(F)cc(OCCN3CC(CF)C3)cc2F)c2[nH]c3ccccc3c2C[C@H]1C (stereo partly drawn) [Example 181, 1-((1R,3R)-1-(2,6-difluoro-4-(2-(3-(fluoromethyl)azetidin-1-yl)ethoxy)phenyl)-3-methyl-3,4-dihydro-1H-pyrido[3,4-b]indol-2(9H)-yl)-3-hydroxy-2-methylpropan-1-one] |
| > 100 nM | C[C@@H]1Cc2c([nH]c3ccccc23)[C@@H](c2c(F)cc(OCCN3CC(CF)C3)cc2F)N1C(=O)C1CNC1 [Example 182, azetidin-3-yl-[(1R,3R)-1-[2,6-difluoro-4-[2-[3-(fluoromethyl)azetidin-1-yl]ethoxy]phenyl]-3-methyl-1,3,4,9-tetrahydropyrido[3,4-b]indol-2-yl] methanone] |
| 4 nM | C[C@@H]1Cc2c([nH]c3ccccc23)[C@@H](c2c(F)cc(OCCN3CC(CF)C3)cc2F)N1C(=O)C1CC1F (stereo partly drawn) [Example 183, ((1R,3R)-1-(2,6-difluoro-4-(2-(3-(fluoromethyl)azetidin-1-yl)ethoxy)phenyl)-3-methyl-3,4-dihydro-1H-pyrido[3,4-b]indol-2(9H)-yl)(2-fluorocyclopropyl)methanone] |
| 0.494 nM | C[C@@H]1CCN([C@@H](C)COc2cc(F)c([C@@H]3c4[nH]c5ccccc5c4C[C@@H](C)N3CC(C)(C)F)c(F)c2)C1 [Example 184] |
| 14 nM | C[C@@H]1Cc2c([nH]c3ccccc23)[C@@H](c2c(F)cc(OCCN3CC(CF)C3)cc2F)N1C(=O)c1ccccc1 [Example 185, [(1R,3R)-1-[2,6-difluoro-4-[2-[3-(fluoromethyl)azetidin-1-yl]ethoxy]phenyl]-3-methyl-1,3,4,9-tetrahydropyrido[3,4-b]indol-2-yl]-phenyl-methanone] |
